Results: patent publication US20170184695A1, “IMAGING OF CREATINE KINASE ENZYME EXPRESSION IN CANCEROUS TISSUES” (Sidra Medical and Research Center, priority 2014, published 2017)

Test system: CK enzyme expressed in the tumor
Assay: In vivo CEST imaging of creatine kinase expression in tumor after tail vein injection of PCr
Settings: 60 minutes post infusion (tail vein injection of PCr) vs base line CEST map, FIG. 3
Procedure: In certain embodiments, the radio frequency (RF) pulse can be provided at different frequency offsets. In certain embodiments, to detect the conversion of phosphocreatine to creatine, an RF pulse was applied at a frequency offset of about 1.8 ppm for a period of about 1 to about 3 seconds.
“b” is the base line CEST map from the same slice. “c” is a CEST map of the same slice at 60 minutes following tail vein injection of PCr.

Compound: CN(CC(=O)O)C(=N)NP(=O)(O)O [PCr, phosphocreatine]
- increase in CEST contrast: about 11%
